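Protocol summary: plate cells (96-well), add compound at 5 concentrations, incubate 48 h, interpolate endpoints linearly. The concentration for 50% growth inhibition is given as GI50.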 The source made the active and inactive calls. No stated cut-off is given here; in the data, active = GI50 up to about 1.1 µM and inactive = higher.
What was measured:
Test in all cases: NCI anticancer screen, dose series, 48 h
SK-OV-3 = test system: SK-OV-3
NCI-H23 = test system: NCI-H23
LOX IMVI = test system: LOX IMVI
RPMI-8226 = test system: RPMI-8226
MDA-N = test system: MDA-N
MCF7 = test system: MCF7
HCT-15 = test system: HCT-15
HOP-62 = test system: HOP-62
TK-10 = test system: TK-10
SNB-75 = test system: SNB-75
SN12C = test system: SN12C
A498 = test system: A498
T47D = test system: T47D
NCI-H522 = test system: NCI-H522
IGROV-1 = test system: IGROV-1
UO-31 = test system: UO-31
COLO 205 = test system: COLO 205
RXF 393 = test system: RXF 393
NCI-H460 = test system: NCI-H460
SR = test system: SR

SMILES	GI50 (SK-OV-3)	GI50 (NCI-H23)	GI50 (LOX IMVI)	GI50 (RPMI-8226)	GI50 (MDA-N)	GI50 (MCF7)	GI50 (HCT-15) [µM]	GI50 (HOP-62)	GI50 (TK-10)	GI50 (SNB-75)	GI50 (SN12C)	GI50 (A498)	GI50 (T47D)	GI50 (NCI-H522)	GI50 (IGROV-1)	GI50 (UO-31)	GI50 (COLO 205)	GI50 (RXF 393)	GI50 (NCI-H460)	GI50 (SR)
CCn1c2c(c3ccccc3c1=O)C(=O)c1ccccc1-2	> 100 µM (inactive)	> 100 µM (inactive)	> 100 µM (inactive)	> 100 µM (inactive)	> 100 µM (inactive)	> 100 µM (inactive)	> 100	> 100 µM (inactive)	> 100 µM (inactive)	> 100 µM (inactive)	> 100 µM (inactive)	> 100 µM (inactive)	> 100 µM (inactive)	> 100 µM (inactive)	> 100 µM (inactive)	> 100 µM (inactive)	> 100 µM (inactive)	–	–	–
CSc1nc(Cl)c(Br)c(Nc2cnc(O)nc2O)n1	19.4 µM (inactive)	17.3 µM (inactive)	19.4 µM (inactive)	28.3 µM (inactive)	23 µM (inactive)	38 µM (inactive)	7.41	16.9 µM (inactive)	14.7 µM (inactive)	17.7 µM (inactive)	18.2 µM (inactive)	11.6 µM (inactive)	13.8 µM (inactive)	1.87 µM (inactive)	6.34 µM (inactive)	20.3 µM (inactive)	16.8 µM (inactive)	22.1 µM (inactive)	–	–
CCC1C(=O)OCc2c1cc1n(c2=O)Cc2cc3ccccc3nc2-1 (stereo unspecified)	43.6 µM (inactive)	2.84 µM (inactive)	3.78 µM (inactive)	12.4 µM (inactive)	45.6 µM (inactive)	1.59 µM (inactive)	43.4	2.08 µM (inactive)	> 100 µM (inactive)	1.96 µM (inactive)	5.07 µM (inactive)	10.7 µM (inactive)	4.38 µM (inactive)	7.73 µM (inactive)	17.6 µM (inactive)	2.37 µM (inactive)	72.3 µM (inactive)	23.8 µM (inactive)	0.802 µM (active)	–
CCNC(=O)c1cc(/C=C/c2ccc([N+](=O)[O-])o2)nc2ccccc12	33.6 µM (inactive)	16.9 µM (inactive)	2.85 µM (inactive)	29.4 µM (inactive)	–	6.4 µM (inactive)	3.88	19.6 µM (inactive)	–	22 µM (inactive)	15.3 µM (inactive)	15.5 µM (inactive)	> 100 µM (inactive)	4.21 µM (inactive)	5.69 µM (inactive)	50.5 µM (inactive)	3.8 µM (inactive)	10.2 µM (inactive)	1.8 µM (inactive)	1.38 µM (inactive)
C=CCN1CCC(O)(c2cc(C(=O)OCC)[nH]c2-c2cc(C)no2)C1 (stereo unspecified)	> 100 µM (inactive)	> 100 µM (inactive)	> 100 µM (inactive)	> 100 µM (inactive)	> 100 µM (inactive)	–	> 100	–	> 100 µM (inactive)	> 100 µM (inactive)	> 100 µM (inactive)	> 100 µM (inactive)	> 100 µM (inactive)	> 100 µM (inactive)	> 100 µM (inactive)	> 100 µM (inactive)	> 100 µM (inactive)	> 100 µM (inactive)	> 100 µM (inactive)	–
CC(=O)NC1C(OCc2ccccc2)OC(CO)C(O)C1OCC(=O)N[C@@H](C)C(=O)N[C@H](CCC(=O)NCCNc1ccc([N+](=O)[O-])c2[nH]c3ccccc3c(=O)c12)C(N)=O (stereo partly specified)	81.5 µM (inactive)	32.3 µM (inactive)	25.9 µM (inactive)	23 µM (inactive)	27.9 µM (inactive)	–	13.5	36.3 µM (inactive)	15.4 µM (inactive)	22.8 µM (inactive)	27.4 µM (inactive)	24 µM (inactive)	57 µM (inactive)	7.62 µM (inactive)	–	13.8 µM (inactive)	15.9 µM (inactive)	–	8.99 µM (inactive)	58.7 µM (inactive)
CC(C)(C)OC(=O)N(CCCCNC(=O)OCc1ccccc1)CCCNC(=O)OCc1ccccc1	> 100 µM (inactive)	21.6 µM (inactive)	–	12.6 µM (inactive)	–	33.3 µM (inactive)	> 100	> 100 µM (inactive)	> 100 µM (inactive)	51.9 µM (inactive)	53.3 µM (inactive)	21.8 µM (inactive)	5.19 µM (inactive)	4.06 µM (inactive)	> 100 µM (inactive)	5.7 µM (inactive)	16.5 µM (inactive)	30 µM (inactive)	38.2 µM (inactive)	9.68 µM (inactive)
N#CC(Cc1ccccc1)N(CCC1=CCCCC1)C(c1ccccc1)c1ccccc1 (stereo unspecified)	> 100 µM (inactive)	60.1 µM (inactive)	–	33.3 µM (inactive)	24.4 µM (inactive)	42.4 µM (inactive)	42.9	> 100 µM (inactive)	> 100 µM (inactive)	> 100 µM (inactive)	–	> 100 µM (inactive)	42.3 µM (inactive)	15.2 µM (inactive)	> 100 µM (inactive)	50.6 µM (inactive)	35.2 µM (inactive)	27.9 µM (inactive)	33.5 µM (inactive)	–
